Laboratory results reported in patent publication US20120258482A1, “PCNA […]” (INDIANA UNIVERSITY RESEARCH AND TECHNOLOGY CORPORATION, priority 2009, published 2012).

Legend:
Type in all cases: cell-based, human
[1] = test system: p21WAF1/CIP1 in MCF7 cells; test: Immunoblot with anti-p21WAF1 antibodies after DOX treatment; details: 5 μM DOX, 4 h after treatment
[2] = test system: PCNA isoform in MCF7 cells (p53 wild-type); test: 2D-PAGE anti-PCNA immunoblot after DOX exposure, MCF7; details: high-dose (5 μM) DOX
Method: (§1) FIG. 7A is a Western blot analysis of p53 wild-type (MCF7) and p53-mutant (MDA-MB-468) breast carcinoma cell lines exposed to 5 μM DOX for the indicated times. Cell extracts (200 μg) were resolved by 2D-PAGE and immunoblotted with anti-PCNA antibodies. In FIG. 7B extracts from MCF7 cells (50 μg) treated with 5 μM DOX were separated by 12% SDS-PAGE and immunoblotted with anti-p21WAF1 antibodies. FIG. 7C is a Western blot analysis of glutathione-immobilized GST-p21 and GST-PIP (a.a. 139-160) fusion proteins incubated with untreated MCF7 cell extracts for 2 h at 4° C. and the pull-down fractions were resolved by 2D-PAGE and Western blotted for PCNA. PCNA isoforms were isolated from MCF7 extracts by incubation with PIP-affinity beads for ˜2 h and analyzed by 2D-PAGE using pH 4-7 IPG strips. Colloidal Coomassie stained spots (See FIG. 7D) were excised from the gel, trypsin digested, and sequenced by LC-MS/MS.
(§2) 2D-PAGE and mass spectrometry. Isoelectric focusing was performed using IPG strips and an IEF cell (BioRad) as previously described (Hoelz, D. J. et al. Proteomics 6, 4808-4816, 2006). […] Anti-PCNA (PC10) antibodies were obtained from Santa Cruz Biotech and anti-WAF1 (DF10) were from EMD Biosciences.
(§3) Although the description of Arm1 identifies a novel posttranslational mechanism in eukaryotic cells, its biological significance was still unclear. […]

[3] = test system: PCNA isoform in MDA MB468 cells (p53-mutant); test: 2D-PAGE anti-PCNA immunoblot after DOX exposure, MDA MB468; details: 5 μM DOX
Method: as §1, §2, §3

COc1cccc2c1C(=O)c1c(O)c3c(c(O)c1C2=O)C[C@@](O)(C(=O)CO)C[C@@H]3O[C@H]1C[C@H](N)[C@H](O)[C@H](C)O1 [DOX, doxorubicin]
induction of p21 expression [1]: over 27 fold | basic-shifted (methyl esterified) PCNA isoform, pI ~5.6 [2]: induced | basic-shifted (methyl esterified) PCNA isoform [3]: unable to identify the isoform
